Measured values: patent US9527828B2, “Method for expanding hematopoietic stem cells using heterocyclic compound” (Nissan Chemical Industries, Ltd., priority 2007, dated 2016)

Experiments:
CD34^+CD38^− cells [1] = assay: Expansion of CD34+CD38− cells from human cord blood-derived CD34+ cells (Example 2); type: cell-based; conditions: 1 μg/mL compound, 50 ng/mL SCF, StemSpan SFEM, 7 days, based on number of CD34+CD38− cells in the absence of compound; for fold induction at 1 µg/mL: Homo sapiens, 168 h, read-out: Expansion efficiency
Protocol: The human cord blood-derived CD34^+ cells collected or purchased in Example 1 were plated on a 24-well plate (TPP) (10000 cells/1/mL/well). As the culture medium, StemSpan SFEM (Stemcell Technologies) containing 50 ng/mL SCF (Peprotech) was used, and Compounds No. 1 to 133 dissolved in dimethyl sulfoxide were added in an amount of 0.1% (v/v) to a final concentration of 1 μg/mL.
After the cells were incubated in liquid culture at 37° C. for 7 days in a CO2 incubator (5% CO2), the number of viable cells was counted by trypan blue assay. The number of CD34^+CD38^− cells was calculated as follows. After the incubation, the cells in the liquid culture was stained with a CD34 antibody (APC, Becton, Dickinson and Company) and a CD38 antibody (PE, Becton, Dickinson and Company), then washed with PBS(−) containing 2% (v/v) FBS and stained with propidium iodide (Sigma-Aldrich Japan) added to a final concentration of 5 μg/mL. The stained cells were analyzed with a flow cytometer JSAN (Bay Bioscience) to determined the proportion of CD34^+CD38^− cells, which was multiplied by the number of viable cells to calculate the number of CD34^+CD38^− cells.
The expansion efficiencies in the presence of 1 μg/mL of compounds based on the number of CD34^+CD38^− cells in the absence of them are shown in Tables 2 and 3 on a scale of A for expansion efficiencies of 10 or greater, B for expansion efficiencies of at least 5 and less than 10, and C for expansion efficiencies of at least 3 and less than 5.

CD34^+CD38^− cells [2] = assay: Expansion of CD34+CD38− cells using cord blood-derived CD34+CD38− cells (Example 6); type: cell-based, human; conditions: 1 μg/mL compound, CD34+CD38− starting cells, 50 ng/mL SCF, 7 days; based on number of CD34+CD38− cells in the presence of 10 ng/mL TPO
Protocol: The human cord blood-derived CD34^+CD38^− cells collected in Example 1 were plated on a 24-well plate (TPP) (from 3000 to 10000 cells/1 mL/well). As the culture medium, StemSpan SFEM (Stemcell Technologies) containing 50 ng/mL SCF (Peprotech) was used, and TPO (Peprotech) or Compound No. 1, No. 2, No. 4 or No. 6 in dimethyl sulfoxide in an amount of 0.1% (v/v) was added to a final concentration of […] or 1 μg/mL, respectively. After the cells were incubated in liquid culture at 37° C. for 7 days in a CO2 incubator (5% CO2), the number of CD34^+CD38^− cells was calculated in the same manner as in Example 2.
The expansion efficiencies in the presence of 1 μg/mL of the compounds based on the number of CD34^+CD38^− cells in the presence of 10 ng/mL TPO are shown in Table 5.

[3] = test system: HPP-CFU colony forming cells; assay: Blood cell colony forming assay, HPP-CFC colonies (Example 5); type: cell-based, human; conditions: liquid cultures of Example 2 (1 μg/mL compound), 500 cells/dish, MethoCult GF H4435, 12 days, averaged
Protocol: The effects of Compounds No. 1, No. 2, and No. 4 of the present invention on hematopoietic progenitor cells were measured by blood cell colony forming assay. The liquid cell cultures obtained in Example 2 were poured into 3.5-cm Petri dishes with MethoCult GF H4435 culture medium (Stemcell Technologies) at 500 cells/dish and incubated in a CO2 incubator (5% CO2, 37° C.) for 12 days. The number of HPP-CFC colonies in each plate was counted under a microscope routinely. The assay was carried out at least in duplicate, and the numbers of HPP-CFC colonies were averaged.

C/C(=N\NC(=O)c1ccc(C(=O)NCc2cc(C)n(C)n2)s1)c1csc(-c2ccc(Cl)c(Cl)c2)c1O [compound 2]
fold induction at 1 µg/mL (CD34^+CD38^− cells [1]): ≥ 10 | Expansion efficiency (CD34^+CD38^− cells [2]): 2.7 | Number of HPP-CFC colonies [3]: 35

C/C(=N\NC(=O)c1ccc(C(=O)Nc2cscn2)s1)c1csc(-c2ccc(Br)cc2)c1O [compound 6]
fold induction at 1 µg/mL (CD34^+CD38^− cells [1]): ≥ 10 | Expansion efficiency (CD34^+CD38^− cells [2]): 1.4

C/C(=N\NC(=O)c1ccc(C(=O)NCc2cccc(C(N)=O)c2)s1)c1csc(-c2ccc(Br)cc2)c1O [compound 94]
fold induction at 1 µg/mL (CD34^+CD38^− cells [1]): ≥ 10

C/C(=N\NC(=O)c1ccc(C(=O)NCc2cccc(C(N)=O)c2)s1)c1csc(-c2ccc(C(F)(F)F)cc2)c1O [compound 95]
fold induction at 1 µg/mL (CD34^+CD38^− cells [1]): ≥ 10

C/C(=N\NC(=O)c1ccc(C(=O)NCc2cccc(C(N)=O)c2)s1)c1csc(-c2ccc(Cl)cc2)c1O [compound 96]
fold induction at 1 µg/mL (CD34^+CD38^− cells [1]): ≥ 10

C/C(=N\NC(=O)c1ccc(C(=O)NCc2cccc(C(N)=O)c2)s1)c1csc(-c2ccc(OC(F)(F)F)cc2)c1O [compound 97]
fold induction at 1 µg/mL (CD34^+CD38^− cells [1]): ≥ 10

COc1ccc(-c2scc(/C(C)=N/NC(=O)c3ccc(C(=O)NCc4cccc(C(N)=O)c4)s3)c2O)cc1 [compound 98]
fold induction at 1 µg/mL (CD34^+CD38^− cells [1]): ≥ 10

C/C(=N\NC(=O)c1ccc(C(=O)NCc2ccccc2C(N)=O)s1)c1csc(-c2ccc(Cl)c(Cl)c2)c1O [compound 99]
fold induction at 1 µg/mL (CD34^+CD38^− cells [1]): ≥ 10

C/C(=N\NC(=O)c1ccc(C(=O)NCc2ccccc2C(N)=O)s1)c1csc(-c2ccc(C(C)(C)C)cc2)c1O [compound 100]
fold induction at 1 µg/mL (CD34^+CD38^− cells [1]): 3 to 5

C/C(=N\NC(=O)c1ccc(C(=O)NCc2ccccc2C(N)=O)s1)c1csc(-c2ccc(Br)cc2)c1O [compound 101]
fold induction at 1 µg/mL (CD34^+CD38^− cells [1]): ≥ 10

C/C(=N\NC(=O)c1ccc(C(=O)NCc2ccccc2C(N)=O)s1)c1csc(-c2ccc(C(F)(F)F)cc2)c1O [compound 102]
fold induction at 1 µg/mL (CD34^+CD38^− cells [1]): ≥ 10

C/C(=N\NC(=O)c1ccc(C(=O)NCc2ccccc2C(N)=O)s1)c1csc(-c2ccc(Cl)cc2)c1O [compound 103]
fold induction at 1 µg/mL (CD34^+CD38^− cells [1]): ≥ 10

C/C(=N\NC(=O)c1ccc(C(=O)NCc2ccccc2C(N)=O)s1)c1csc(-c2ccc(OC(F)(F)F)cc2)c1O [compound 104]
fold induction at 1 µg/mL (CD34^+CD38^− cells [1]): ≥ 10

COc1ccc(-c2scc(/C(C)=N/NC(=O)c3ccc(C(=O)NCc4ccccc4C(N)=O)s3)c2O)cc1 [compound 105]
fold induction at 1 µg/mL (CD34^+CD38^− cells [1]): 5 to 10

CNC(=O)c1ccc(CNC(=O)c2ccc(C(=O)N/N=C(\C)c3csc(-c4ccc(Cl)c(Cl)c4)c3O)s2)cc1 [compound 106]
fold induction at 1 µg/mL (CD34^+CD38^− cells [1]): ≥ 10

CNC(=O)c1ccc(CNC(=O)c2ccc(C(=O)N/N=C(\C)c3csc(-c4ccc(C(C)(C)C)cc4)c3O)s2)cc1 [compound 107]
fold induction at 1 µg/mL (CD34^+CD38^− cells [1]): ≥ 10

CNC(=O)c1ccc(CNC(=O)c2ccc(C(=O)N/N=C(\C)c3csc(-c4ccc(Br)cc4)c3O)s2)cc1 [compound 108]
fold induction at 1 µg/mL (CD34^+CD38^− cells [1]): ≥ 10

CNC(=O)c1ccc(CNC(=O)c2ccc(C(=O)N/N=C(\C)c3csc(-c4ccc(C(F)(F)F)cc4)c3O)s2)cc1 [compound 109]
fold induction at 1 µg/mL (CD34^+CD38^− cells [1]): ≥ 10

CNC(=O)c1ccc(CNC(=O)c2ccc(C(=O)N/N=C(\C)c3csc(-c4ccc(Cl)cc4)c3O)s2)cc1 [compound 110]
fold induction at 1 µg/mL (CD34^+CD38^− cells [1]): ≥ 10

CNC(=O)c1ccc(CNC(=O)c2ccc(C(=O)N/N=C(\C)c3csc(-c4ccc(OC(F)(F)F)cc4)c3O)s2)cc1 [compound 111]
fold induction at 1 µg/mL (CD34^+CD38^− cells [1]): ≥ 10

CNC(=O)c1ccc(CNC(=O)c2ccc(C(=O)N/N=C(\C)c3csc(-c4ccc(OC)cc4)c3O)s2)cc1 [compound 112]
fold induction at 1 µg/mL (CD34^+CD38^− cells [1]): ≥ 10

C/C(=N\NC(=O)c1ccc(C(=O)NC(C)c2ccc(C(N)=O)cc2)s1)c1csc(-c2ccc(Cl)c(Cl)c2)c1O (stereo not drawn) [compound 113]
fold induction at 1 µg/mL (CD34^+CD38^− cells [1]): ≥ 10

C/C(=N\NC(=O)c1ccc(C(=O)NC(C)c2ccc(C(N)=O)cc2)s1)c1csc(-c2ccc(C(C)(C)C)cc2)c1O (stereo not drawn) [compound 114]
fold induction at 1 µg/mL (CD34^+CD38^− cells [1]): ≥ 10

C/C(=N\NC(=O)c1ccc(C(=O)NC(C)c2ccc(C(N)=O)cc2)s1)c1csc(-c2ccc(Br)cc2)c1O (stereo not drawn) [compound 115]
fold induction at 1 µg/mL (CD34^+CD38^− cells [1]): ≥ 10

C/C(=N\NC(=O)c1ccc(C(=O)NC(C)c2ccc(C(N)=O)cc2)s1)c1csc(-c2ccc(C(F)(F)F)cc2)c1O (stereo not drawn) [compound 116]
fold induction at 1 µg/mL (CD34^+CD38^− cells [1]): ≥ 10

C/C(=N\NC(=O)c1ccc(C(=O)NC(C)c2ccc(C(N)=O)cc2)s1)c1csc(-c2ccc(Cl)cc2)c1O (stereo not drawn) [compound 117]
fold induction at 1 µg/mL (CD34^+CD38^− cells [1]): ≥ 10

C/C(=N\NC(=O)c1ccc(C(=O)NC(C)c2ccc(C(N)=O)cc2)s1)c1csc(-c2ccc(OC(F)(F)F)cc2)c1O (stereo not drawn) [compound 118]
fold induction at 1 µg/mL (CD34^+CD38^− cells [1]): ≥ 10

COc1ccc(-c2scc(/C(C)=N/NC(=O)c3ccc(C(=O)NC(C)c4ccc(C(N)=O)cc4)s3)c2O)cc1 (stereo not drawn) [compound 119]
fold induction at 1 µg/mL (CD34^+CD38^− cells [1]): ≥ 10

CC(=O)Nc1ccc(C(C)NC(=O)c2ccc(C(=O)N/N=C(\C)c3csc(-c4ccc(Cl)c(Cl)c4)c3O)s2)cc1 (stereo not drawn) [compound 120]
fold induction at 1 µg/mL (CD34^+CD38^− cells [1]): ≥ 10

CC(=O)Nc1ccc(C(C)NC(=O)c2ccc(C(=O)N/N=C(\C)c3csc(-c4ccc(C(C)(C)C)cc4)c3O)s2)cc1 (stereo not drawn) [compound 121]
fold induction at 1 µg/mL (CD34^+CD38^− cells [1]): 5 to 10

CC(=O)Nc1ccc(C(C)NC(=O)c2ccc(C(=O)N/N=C(\C)c3csc(-c4ccc(Br)cc4)c3O)s2)cc1 (stereo not drawn) [compound 122]
fold induction at 1 µg/mL (CD34^+CD38^− cells [1]): ≥ 10

CC(=O)Nc1ccc(C(C)NC(=O)c2ccc(C(=O)N/N=C(\C)c3csc(-c4ccc(C(F)(F)F)cc4)c3O)s2)cc1 (stereo not drawn) [compound 123]
fold induction at 1 µg/mL (CD34^+CD38^− cells [1]): ≥ 10

CC(=O)Nc1ccc(C(C)NC(=O)c2ccc(C(=O)N/N=C(\C)c3csc(-c4ccc(Cl)cc4)c3O)s2)cc1 (stereo not drawn) [compound 124]
fold induction at 1 µg/mL (CD34^+CD38^− cells [1]): ≥ 10

CC(=O)Nc1ccc(C(C)NC(=O)c2ccc(C(=O)N/N=C(\C)c3csc(-c4ccc(OC(F)(F)F)cc4)c3O)s2)cc1 (stereo not drawn) [compound 125]
fold induction at 1 µg/mL (CD34^+CD38^− cells [1]): ≥ 10

COc1ccc(-c2scc(/C(C)=N/NC(=O)c3ccc(C(=O)NC(C)c4ccc(NC(C)=O)cc4)s3)c2O)cc1 (stereo not drawn) [compound 126]
fold induction at 1 µg/mL (CD34^+CD38^− cells [1]): ≥ 10

C/C(=N\NC(=O)c1ccc(C(=O)NCc2cc(C)n(C)n2)s1)c1csc(-c2ccc(Br)cc2)c1O [compound 127]
fold induction at 1 µg/mL (CD34^+CD38^− cells [1]): ≥ 10

C/C(=N\NC(=O)c1ccc(C(=O)NCc2cc(C)n(C)n2)s1)c1csc(-c2ccc(OC(F)(F)F)cc2)c1O [compound 128]
fold induction at 1 µg/mL (CD34^+CD38^− cells [1]): ≥ 10

COc1ccc(-c2scc(/C(C)=N/NC(=O)c3ccc(C(=O)NCc4cc(C)n(C)n4)s3)c2O)cc1 [compound 129]
fold induction at 1 µg/mL (CD34^+CD38^− cells [1]): ≥ 10

C/C(=N\NC(=O)c1ccc(C(=O)NCc2cn(C)cn2)s1)c1csc(-c2ccc(Br)cc2)c1O [compound 130]
fold induction at 1 µg/mL (CD34^+CD38^− cells [1]): ≥ 10

C/C(=N\NC(=O)c1ccc(C(=O)NCc2cn(C)cn2)s1)c1csc(-c2ccc(C(F)(F)F)cc2)c1O [compound 131]
Expansion efficiency (CD34^+CD38^− cells [1]): A (A for expansion efficiencies of 10 or greater)

C/C(=N\NC(=O)c1ccc(C(=O)NCc2cn(C)cn2)s1)c1csc(-c2ccc(Cl)cc2)c1O [compound 132]
fold induction at 1 µg/mL (CD34^+CD38^− cells [1]): ≥ 10

COc1ccc(-c2scc(/C(C)=N/NC(=O)c3ccc(C(=O)NCc4cn(C)cn4)s3)c2O)cc1 [compound 133]
fold induction at 1 µg/mL (CD34^+CD38^− cells [1]): ≥ 10
